Data from US9428568B2, “Compositions and methods for modulating cell-cell fusion via intermediate-conductance calcium-activated potassium channels” (BOEHRINGER INGELHEIM INTERNATIONAL GMBH, priority 2008, dated 2016).
Entries after “also recorded” stand apart in the source; their conditions may differ. Read-outs that look alike come from different tables or passages of the source.

Tests used:
[1] = test system: bone marrow-derived macrophages from WT mice; experiment: Osteoclastogenesis / cell fusion of bone marrow-derived macrophages of WT mice under M-CSF+RANKL (TRAP+ osteoclast-like cells); assay type: cell-based, mouse
Text: Bone marrow- and spleen-derived mouse osteoclasts. These cells were generated from four- to twelve-week-old sk4^+/+ and sk4^−/− mice as previously described (Cui et al. (2007) Proc. Natl. Acad. Sci. USA 104:14436-14441; Epub 2007 Aug. 28). Bone marrow and spleen cells were isolated, mechanically dissociated and cultured at a density of 1.33×10^6 cells per cm^2 in MEM containing 10% heat-inactivated fetal bovine serum (HyClone, Logan, Utah), 100 units/ml penicillin-streptomycin (Gibco Invitrogen, Carlsbad, Calif.), 1% MEM vitamins, 1% glutamine, and 30 ng/ml M-CSF (PeproTech, Inc. Rocky Hill, N.J.). RANKL (PeproTech, Inc.) was added at a concentration of 40 ng/ml. Media was changed every three days. To assess the formation of an actin ring, a landmark of osteoclast activity, cells were cultured in the presence of M-CSF (20 ng/ml) and RANKL (40 ng/ml) on glass slides for 8 days, fixed and reacted with phalloidin-Alexa 568 and Topro-3. To further assess resorptive activity, cells were cultured on Osteologic slides that are coated with artificial bone made of calcium-phosphate crystals. After 8 days, cells were lysed and the substrates stained with silver nitrate according to the supplier's instructions. The resorbed areas on slides were recorded by histomorphometry.

[2] = test system: human PBMCs; experiment: Human osteoclastogenesis / cell fusion of PBMCs under M-CSF+RANKL stimulation (TRAP+ osteoclast-like cells); assay type: cell-based; conditions: for IC50: PBMC, read-out: inhibition of cell fusion, IC50; for osteoclast number / osteoclast surface area: dose-dependent
Protocol: Human osteoclasts. These cells were generated using normal peripheral blood blood (Allcells, Emeryville, Calif.). Peripheral blood monocytes were isolated using Ficoll-Paque and cultured at a concentration of 3×10^6 cells/ml in MEME supplemented with 10% FCS, recombinant human M-CSF (25 ng/ml) and recombinant human RANKL (40 ng/ml). The medium was changed once a week.

[3] = molecular target: SK4 channels (Homo sapiens, UniProt O15554); conditions: cited from earlier work
[4] = general statement in the definition of SK4 channels

| Compound | IC50 ([2]; FIGS. 10A-B) [nM] | osteoclast number [2] | osteoclast surface area [2] | block of SK4 channels [3, 4] | other results |
| --- | --- | --- | --- | --- | --- |
| NC(=O)C(c1ccccc1)(c1ccc(F)cc1)c1ccc(F)cc1 [ICA-17043, 2,2-bis(4-fluorophenyl)-2-phenylacetamide] | 300 | decreased | decreased | – | osteoclastogenesis (surface area of TRAP+ osteoclast-like cells, POC relative to no compound control) ([1]; bone marrow-derived macrophages of WT (SK4+/+) mice, FIGS. 7A-B, five replicates): attenuated osteoclastogenesis in a dose dependent manner; also recorded: prevent osteoclastogenesis in a dose-dependent manner; concentration at which cell fusion was significantly inhibited (TRAP-stained images) ([1]; bone marrow-derived macrophages of WT mice, FIG. 7C): 0.36 µM; human osteoclastogenesis in vitro (surface area of TRAP+ osteoclast-like cells, POC relative to no compound control) ([2]; FIGS. 10A-B, four replicates): inhibited human osteoclastogenesis in vitro in a dose-dependent manner; also recorded: prevent osteoclastogenesis in a dose-dependent manner |
| Clc1ccccc1C(c1ccccc1)(c1ccccc1)n1cccn1 [TRAM-34, 1-[(2-chlorophenyl)diphenylmethyl]-1H-pyrazole] | 800 | decreased | decreased | – | – |
| Clc1ccccc1C(c1ccccc1)(c1ccccc1)n1ccnc1 [clotrimazole, 1-[(2-chlorophenyl)-diphenylmethyl]-1H-imidazole] | – | – | – | – | block of SK4 channels [3]: blocked |
| CC(=O)N1CCN(c2ccc(OCC3COC(Cn4ccnc4)(c4ccc(Cl)cc4Cl)O3)cc2)CC1 (stereo not shown) [ketoconazole] | – | – | – | not blocked | – |
| charybdotoxin | – | – | – | blocked | – |
| iberiotoxin | – | – | – | not blocked | – |
